# Reference: US8524740B2, “Synthesis and anticancer activity of aryl and heteroaryl-quinolin derivatives” (Tairx, Inc., priority 2010, dated 2013)
row,Compound,melting point [°C]
1,"CN(C)c1ccc2c(c1)C(=O)CC(c1ccccc1OCc1ccccc1)=N2 [Compound 115, 2-(2-Benzyloxyphenyl)-6-dimethylaminoquinolin-4-one]",210 to 212
2,"CN(C)c1ccc2c(c1)C(=O)CC(c1cccc(OCc3ccccc3)c1)=N2 [Compound 118, 2-(3-Benzyloxyphenyl)-6-dimethylaminoquinolin-4-one]",307 to 308
3,"O=C1CC(c2ccccc2OCc2ccccc2)=Nc2ccc(N3CCCC3)cc21 [Compound 114, 2-(2-Benzyloxyphenyl)-6-pyrrolidinoquinolin-4-one]",293 to 295
4,"COc1cc(OCc2ccccc2)cc(C2=Nc3cc4c(cc3C(=O)C2)OCO4)c1 [Compound 165, 2-(3-Benzyloxy-5-methoxyphenyl)-6,7-methylenedioxyquinolin-4-one]",235 to 238
5,"COc1cc2c(cc1OCc1ccccc1)N=C(c1ccccc1F)CC2=O [Compound 22, 7-Benzyloxy-2-(2-fluorophenyl)-6-methoxyquinolin-4-one]",132 to 134
6,"O=C1CC(c2cccc(OCc3ccccc3)c2)=Nc2ccc(N3CCCC3)cc21 [Compound 117, 2-(3-Benzyloxyphenyl)-6-pyrrolidinoquinolin-4-one]",320 to 322
7,"COc1cc2c(cc1OCc1ccccc1)N=C(c1cccc(F)c1)CC2=O [Compound 23, 7-Benzyloxy-2-(3-fluorophenyl)-6-methoxyquinolin-4-one]",154 to 155
8,"COc1cc(C2=Nc3ccc(N4CCCC4)cc3C(=O)C2)ccc1OCc1ccccc1 [Compound 123, 2-(4-(Benzyloxy)-3-methoxyphenyl)-6-pyrrolidinoquinolin-4-one]",304 to 306
9,"COc1cc2c(cc1OCc1ccccc1)N=C(c1ccc(F)cc1)CC2=O [Compound 24, 7-Benzyloxy-2-(4-fluorophenyl)-6-methoxyquinolin-4-one]",248 to 249
10,"O=C1CC(c2ccc(OCc3ccccc3)cc2)=Nc2ccc(N3CCCC3)cc21 [Compound 120, 2-(4-Benzyloxyphenyl)-6-pyrrolidinoquinolin-4-one]",330 to 332
11,"CN(C)c1ccc2c(c1)C(=O)CC(c1ccc(OCc3ccccc3)cc1)=N2 [Compound 121, 2-(4-Benzyloxyphenyl)-6-dimethylaminoquinolin-4-one]",283 to 285
12,"O=C1CC(c2ccc(OCc3ccccc3)cc2)=Nc2ccc(N3CCOCC3)cc21 [Compound 119, 2-(4-Benzyloxyphenyl)-6-morpholinoquinolin-4-one]",320 to 323
13,"O=C1CC(c2cccc(OCc3ccccc3)c2)=Nc2ccc(N3CCOCC3)cc21 [Compound 116, 2-(3-Benzyloxyphenyl)-6-morpholinoquinolin-4-one]",283 to 285
